Results from patent publication US12173320B2, “Production of red blood cells and platelets from stem cells” (BOSTON MEDICAL CENTER CORPORATION, priority 2012, dated 2024).

Legend:
[1] = system: iPSC-derived MEPs; assay: Live versus dead cell FACS (propidium iodide vs. Hoechst) of MEPs; format: cell-based, human
Experimental: 6-formylindolo[3,2-b]carbazole (FICZ), an AHR small molecule agonist, and CH223191, an AHR competitive inhibitor were used for these assays. CH223191 was added to mesoderm cultures at Day 6 at 5 μM (lx) and 2.504 (0.5×). 0.2 μM FICZ was added to cultures at Day 7 and media was added daily. DMSO was used as a vehicle control.
Roughly 10^5 cells were collected, spun, and re-suspended in 0.5% BSA in PBS. Samples were incubated for 30 min at ambient temperature with human antibodies including CD41a-FITC (BD 555466), CD235-PE (BD 555570), CD71-FITC (BD 555536), washed and spun at 3300 rpm for 7 min, and re-suspended in 0.5% BSA in PBS with 1 ug/ml Propidium Iodide. Samples were run on a BD FACScalibur using Cellquest Pro software and analyzed via FloJo 8.7. For ploidy analysis, cells were treated with 1.5% NP-40 (Boston Bioproducts P-872) and 62.5 ug/ml Propidium Iodide in PBS immediately before FACScalibur interrogation. For murine bone marrow, samples were first incubated for 5 min at ambient temperature with murine conjugated antibody CD16/32 (BD 553142) before a 30 min incubation with c-Kit-PE (BD 553355), CD41a-FITC (BD 553848), Ter119-PE (BD 553673). For cell viability assays, 2-3×10 ^5 cells were collected, re-suspended in 8.8 ug/ml Hoecsht 33342 in PBS supplemented with 5% FBS. Samples were then incubated in the dark at 37° C. for 15 min, washed, and re-suspended in 1 ug/ml Propidium Iodide in 5% FBS. Samples were run on an LSR-II machine with FACSDiva software and analyzed via FloJo 8.7.
In order to determine whether FICZ-mediated transactivation of the AhR receptor was responsible for the exponential expansion of iPSC-derived MEPs, the previously described Hoecsht/Propidium Iodide apoptosis assay was performed using the known AhR inhibitor CH223191. As previously shown in FIG. 3, fewer cells stained with propidium iodide after FICZ treatment (e.g., 15.5% vs. 8.09%) (FIG. 5E). […] The efficacy of the CH223191 was confirmed by its ability to block CY1^31B1 induction as assayed by qRT-PCR (FIG. 5F).

[2] = system: red cell-depleted bone marrow from C57BL/6 mice; assay: MEP production in murine bone marrow culture (FACS); format: cell-based, mouse; conditions: 0.2 μM FICZ, 3 days, versus vehicle
Experimental: Representative FACS analysis dot plots of red cell depleted C57B6 bone marrow grown for 3 days in +/−0.2 μM FICZ. 1×10^5 cells were initially treated with CD16/32 Fc receptor block, followed by directly conjugated monoclonal antibodies for the designated markers.
Roughly 10^5 cells were collected, spun, and re-suspended in 0.5% BSA in PBS. Samples were incubated for 30 min at ambient temperature with human antibodies including CD41a-FITC (BD 555466), CD235-PE (BD 555570), CD71-FITC (BD 555536), washed and spun at 3300 rpm for 7 min, and re-suspended in 0.5% BSA in PBS with 1 ug/ml Propidium Iodide. Samples were run on a BD FACScalibur using Cellquest Pro software and analyzed via FloJo 8.7. For ploidy analysis, cells were treated with 1.5% NP-40 (Boston Bioproducts P-872) and 62.5 ug/ml Propidium Iodide in PBS immediately before FACScalibur interrogation. For murine bone marrow, samples were first incubated for 5 min at ambient temperature with murine conjugated antibody CD16/32 (BD 553142) before a 30 min incubation with c-Kit-PE (BD 553355), CD41a-FITC (BD 553848), Ter119-PE (BD 553673). For cell viability assays, 2-3×10 ^5 cells were collected, re-suspended in 8.8 ug/ml Hoecsht 33342 in PBS supplemented with 5% FBS. […] Samples were run on an LSR-II machine with FACSDiva software and analyzed via FloJo 8.7. […]

[3] = In vivo blood cell counts (Hemavet) in normal mice; design: species or system mouse
Experimental: C57B16 mice were injected daily intraperitoneally with FICZ suspended in vegetable oil using a weekly dose escalation scheme (Week 1: 1 mg/kg; Week 2: 2 mg/kg; Week 3: 4 mg/kg). Blood cell counts were assayed by Hemavet quantification of peripheral blood bleeds, at all 3 time points (Day 7, 14, and 21). Following the 3 week time point, mice were sacrificed and livers and spleens harvested for quantitative RT-PCR analyses.
To determine if FICZ treatment or whole animals would affect RBC or platelet production, C57B16 mice were injected daily intraperitoneally with FICZ suspended in vegetable oil using a weekly dose escalation scheme (Week 1: 1 mg/kg; Week 2: 2 mg/kg; Week 3: 4 mg/kg). […] Following the 3 week time point, mice were sacrificed and livers and spleens harvested.

[4] = C57B16 mice, daily i.p. dose escalation

SMILES: O=Cc1c2c(cc3c1=Nc1ccccc1-3)=Nc1ccccc1-2 [FICZ, 6-formylindolo[3,2-b]carbazole]
- cells stained with propidium iodide ([1]; D13 MEPs, FICZ added at D7, untreated 15.5%): 8.09%
- population of live cells as delineated by FSC and SSC ([1]; day 15 MEPs + FICZ): 32.6%
- live cells PI- Hoechst+ ([1]; day 15 MEPs + FICZ, gated from FSC vs. SSC population): 97.7%
- cell death by propidium iodide staining and Hoechst dye exclusion ([1]; day 30 MEPs, versus untreated control): significantly less cell death
- CD41+ Ter119+ MEPs in culture [2]: distinct populations
- red blood cell (RBC) counts [3, 4]: None of the mice in the study showed significant variations
- white blood cell (WBC) counts [3, 4]: None of the mice in the study showed significant variations
- platelet counts ([3]; C57B16 mice, daily i.p., 1, 2, 4 mg/kg weekly escalation, Day 7, 14 and 21, versus mock or vehicle): increased platelet counts
- platelet response ([3]; one mouse immediately exposed to higher doses (4 mg/kg), no week 1 escalation): more immediate and prolific platelet response
